Measurements published in patent US20210070748A1, “INHIBITORS OF BRUTONS TYROSINE KINASE” (Pharmacyclics LLC, priority 2015, published 2021).

Experiments:
[1] = target: T1, TEC (Homo sapiens, UniProt P42680); assay: Inhibition of a panel of kinases, in vitro HotSpot kinase assay: TEC; format: biochemical; settings: D-compounds panel data; 1 μM ATP
T1 sequence (P42680 1-631): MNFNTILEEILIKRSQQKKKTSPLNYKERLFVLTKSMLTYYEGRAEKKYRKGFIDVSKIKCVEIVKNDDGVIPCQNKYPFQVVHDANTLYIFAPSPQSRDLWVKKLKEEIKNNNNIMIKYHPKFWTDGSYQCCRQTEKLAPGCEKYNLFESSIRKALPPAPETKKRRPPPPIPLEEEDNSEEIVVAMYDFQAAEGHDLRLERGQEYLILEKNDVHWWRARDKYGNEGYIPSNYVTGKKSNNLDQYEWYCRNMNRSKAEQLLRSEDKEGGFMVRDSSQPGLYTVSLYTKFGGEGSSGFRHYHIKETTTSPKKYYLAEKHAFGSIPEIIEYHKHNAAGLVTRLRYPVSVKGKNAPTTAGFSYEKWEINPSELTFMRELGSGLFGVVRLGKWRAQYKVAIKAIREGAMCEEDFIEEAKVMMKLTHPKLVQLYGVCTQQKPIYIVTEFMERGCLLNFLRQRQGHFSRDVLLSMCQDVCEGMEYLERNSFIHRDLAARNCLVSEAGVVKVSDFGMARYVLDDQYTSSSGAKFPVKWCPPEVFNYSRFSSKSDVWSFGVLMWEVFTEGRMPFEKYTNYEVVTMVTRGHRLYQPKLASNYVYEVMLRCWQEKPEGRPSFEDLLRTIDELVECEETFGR
Protocol: The degree of inhibition of a panel of kinases is determined using the in vitro HotSpot kinase assay (purified enzymes, ^33P-ATP, an appropriate substrate and 1 μM ATP).

[2] = target: T2, JAK3 (Homo sapiens, UniProt P52333); assay: Inhibition of a panel of kinases, in vitro HotSpot kinase assay: JAK3; format: biochemical; settings: D-compounds panel data; 1 μM ATP; read-out: IC50 JAK3
T2 sequence (P52333 1-1124): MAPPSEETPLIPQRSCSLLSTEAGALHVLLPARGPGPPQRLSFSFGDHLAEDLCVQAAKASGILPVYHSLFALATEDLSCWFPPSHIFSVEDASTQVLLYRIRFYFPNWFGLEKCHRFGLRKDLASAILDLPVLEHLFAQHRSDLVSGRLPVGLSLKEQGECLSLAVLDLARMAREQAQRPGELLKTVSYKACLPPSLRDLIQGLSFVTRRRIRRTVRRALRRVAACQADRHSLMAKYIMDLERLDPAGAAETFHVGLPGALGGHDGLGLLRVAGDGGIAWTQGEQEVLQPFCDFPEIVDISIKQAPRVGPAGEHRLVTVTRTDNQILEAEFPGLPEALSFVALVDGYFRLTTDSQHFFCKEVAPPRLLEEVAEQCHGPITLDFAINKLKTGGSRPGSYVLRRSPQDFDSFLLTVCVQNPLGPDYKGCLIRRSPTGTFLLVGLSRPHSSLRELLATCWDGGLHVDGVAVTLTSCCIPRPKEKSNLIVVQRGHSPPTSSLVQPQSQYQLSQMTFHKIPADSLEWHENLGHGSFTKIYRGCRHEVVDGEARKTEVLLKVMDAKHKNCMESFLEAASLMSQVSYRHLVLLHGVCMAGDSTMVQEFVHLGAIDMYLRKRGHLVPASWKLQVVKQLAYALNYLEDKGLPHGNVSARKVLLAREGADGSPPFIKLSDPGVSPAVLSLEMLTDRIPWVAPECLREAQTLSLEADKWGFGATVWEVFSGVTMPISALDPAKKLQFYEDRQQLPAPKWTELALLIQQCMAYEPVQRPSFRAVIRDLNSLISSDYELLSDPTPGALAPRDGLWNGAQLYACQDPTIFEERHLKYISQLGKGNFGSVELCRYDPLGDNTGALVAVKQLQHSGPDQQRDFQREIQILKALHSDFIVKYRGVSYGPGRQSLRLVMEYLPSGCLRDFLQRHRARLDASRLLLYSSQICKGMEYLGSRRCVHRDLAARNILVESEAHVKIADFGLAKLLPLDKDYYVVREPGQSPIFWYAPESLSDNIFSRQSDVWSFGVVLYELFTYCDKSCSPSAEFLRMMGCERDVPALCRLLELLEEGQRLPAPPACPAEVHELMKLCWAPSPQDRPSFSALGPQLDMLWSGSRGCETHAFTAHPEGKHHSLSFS

C[C@@H]1CC[C@@H](NC(=O)c2ccc(C3CC3)cc2)CN1c1cnc(C(N)=O)c(Nc2cnn(C)c2)n1 [Example D-143, 5-[(2R,5R)-5-(4-cyclopropylbenzamido)-2-methylpiperidin-1-yl]-3-[(1-methyl-1H-pyrazol-4-yl)amino]pyrazine-2-carboxamide]
IC50 [1]: 100 to 1000 nM
IC50 [2]: > 10000 nM

C[C@H]1CC[C@H](NC(=O)c2ccc(C3CC3)cc2)CN1c1cnc(C(N)=O)c(Nc2cnn(C)c2)n1 [Example D-144, 5-[(2S,5S)-5-(4-cyclopropylbenzamido)-2-methylpiperidin-1-yl]-3-[(1-methyl-1H-pyrazol-4-yl)amino]pyrazine-2-carboxamide]
IC50 [1]: 1000 to 10000 nM
IC50 [2]: > 10000 nM

C[C@@H]1CC[C@H](NC(=O)c2ccc(C3CC3)cc2)CN1c1cnc(C(N)=O)c(Nc2cnn(C)c2)n1 [Example D-145, 5-[(2R,5S)-5-(4-cyclopropylbenzamido)-2-methylpiperidin-1-yl]-3-[(1-methyl-1H-pyrazol-4-yl)amino]pyrazine-2-carboxamide]
IC50 [1]: 1000 to 10000 nM
IC50 [2]: > 10000 nM

C[C@@H]1[C@H](NC(=O)c2ccc(C3CC3)cc2)CCCN1c1cnc(C(N)=O)c(Nc2ccc(N3CCN(C)CC3)c(F)c2)n1 [Example D-146, 5-[(2R,3R)-3-(4-cyclopropylbenzamido)-2-methylpiperidin-1-yl]-3-{[3-fluoro-4-(4-methylpiperazin-1-yl)phenyl]amino}pyrazine-2-carboxamide]
IC50 [1]: 10 to 100 nM
IC50 [2]: 1000 to 10000 nM

Cn1cc(Nc2nc(N3CCCC4(C3)CN(c3ccc(C5CC5)cc3)C(=O)O4)cnc2C(N)=O)cn1 [Example D-147, 5-[3-(4-cyclopropylphenyl)-2-oxo-1-oxa-3,7-diazaspiro[4.5]decan-7-yl]-3-[(1-methyl-1H-pyrazol-4-yl)amino]pyrazine-2-carboxamide]
IC50 [1]: 100 to 1000 nM
IC50 [2]: 1000 to 10000 nM

Cc1cccc(-c2cnc(C3CCCN(c4cnc(C(N)=O)c(Nc5cnn(C)c5)n4)C3)[nH]2)c1 [Example D-148, 3-[(1-methyl-1H-pyrazol-4-yl)amino]-5-{3-[5-(3-methylphenyl)-1H-imidazol-2-yl]piperidin-1-yl}pyrazine-2-carboxamide]
IC50 [1]: 100 to 1000 nM
IC50 [2]: 1000 to 10000 nM

C[C@@H]1CC[C@H](NC(=O)c2ccc(C3CC3)cc2)CN1c1cnc(C(N)=O)c(Nc2ccc(N3CCN(C)CC3)c(F)c2)n1 [Example D-149, 5-[(2R,5 S)-5-(4-cyclopropylbenzamido)-2-methylpiperidin-1-yl]-3-{[3-fluoro-4-(4-methylpiperazin-1-yl)phenyl]amino}pyrazine-2-carboxamide]
IC50 [1]: 100 to 1000 nM
IC50 [2]: 1000 to 10000 nM

C[C@H]1CC[C@@H](NC(=O)c2ccc(C3CC3)cc2)CN1c1cnc(C(N)=O)c(Nc2ccc(N3CCN(C)CC3)c(F)c2)n1 [Example D-150, 5-[(2S,5R)-5-(4-cyclopropylbenzamido)-2-methylpiperidin-1-yl]-3-{[3-fluoro-4-(4-methylpiperazin-1-yl)phenyl]amino}pyrazine-2-carboxamide]
IC50 [1]: ≤ 10 nM
IC50 [2]: 1000 to 10000 nM

C[C@@H]1CC[C@H](NC(=O)N(C)C)CN1c1cnc(C(N)=O)c(Nc2cnn(C)c2)n1 [Example D-151, 5-[(2R,5S)-5-[(dimethylcarbamoyl)amino]-2-methylpiperidin-1-yl]-3-[(1-methyl-1H-pyrazol-4-yl)amino]pyrazine-2-carboxamide]
IC50 [1]: 10 to 100 nM
IC50 [2]: > 10000 nM

C[C@H]1CC[C@@H](NC(=O)N(C)C)CN1c1cnc(C(N)=O)c(Nc2cnn(C)c2)n1 [Example D-152, 5-[(2S,5R)-5-[(dimethylcarbamoyl)amino]-2-methylpiperidin-1-yl]-3-[(1-methyl-1H-pyrazol-4-yl)amino]pyrazine-2-carboxamide]
IC50 [1]: 10 to 100 nM
IC50 [2]: 1000 to 10000 nM

C[C@@H]1CC[C@H](NC(=O)c2ccc(C3CC3)cc2)CN1c1cnc(C(N)=O)c(Nc2ccc(N3CCN(C)CC3)cc2)n1 [Example D-153, 5-[(2R,5S)-5-(4-cyclopropylbenzamido)-2-methylpiperidin-1-yl]-3-{[4-(4-methylpiperazin-1-yl)phenyl]amino}pyrazine-2-carboxamide]
IC50 [1]: ≤ 10 nM
IC50 [2]: 100 to 1000 nM

C[C@H]1CC[C@@H](NC(=O)c2ccc(C3CC3)cc2)CN1c1cnc(C(N)=O)c(Nc2ccc(N3CCN(C)CC3)cc2)n1 [Example D-154, 5-[(2S,5R)-5-(4-cyclopropylbenzamido)-2-methylpiperidin-1-yl]-3-{[4-(4-methylpiperazin-1-yl)phenyl]amino}pyrazine-2-carboxamide]
IC50 [1]: 100 to 1000 nM
IC50 [2]: 100 to 1000 nM

CN(C)c1ccc2c(=O)n([C@@H]3CCCN(c4cnc(C(N)=O)c(Nc5cnn(C)c5)n4)C3)ccc2c1 [Example D-155, 5-[(3R)-3-[6-(dimethylamino)-1-oxo-1,2-dihydroisoquinolin-2-yl]piperidin-1-yl]-3-[(1-methyl-1H-pyrazol-4-yl)amino]pyrazine-2-carboxamide]
IC50 [1]: 10 to 100 nM
IC50 [2]: 100 to 1000 nM

CN(C)c1ccc2c(c1)CCN([C@@H]1CCCN(c3cnc(C(N)=O)c(Nc4cnn(C)c4)n3)C1)C2=O [Example D-156, 5-[(3R)-3-[6-(dimethylamino)-1-oxo-1,2,3,4-tetrahydroisoquinolin-2-yl]piperidin-1-yl]-3-[(1-methyl-1H-pyrazol-4-yl)amino]pyrazine-2-carboxamide]
IC50 [1]: 10 to 100 nM
IC50 [2]: 1000 to 10000 nM

C[C@H]1CC[C@@H](NC(=O)c2ccc(C(C)(C)O)cc2)CN1c1nnc(C(N)=O)c(Nc2cnn(C)c2)n1 [Example D-157, 3-[(2S,5R)-5-[4-(2-hydroxypropan-2-yl)benzamido]-2-methylpiperidin-1-yl]-5-[(1-methyl-1H-pyrazol-4-yl)amino]-1,2,4-triazine-6-carboxamide]
IC50 [1]: ≤ 10 nM
IC50 [2]: 100 to 1000 nM

Cc1cc(Nc2nc(N3CCC[C@@H](NC(=O)c4ccc(C(C)(C)O)cc4)C3)cnc2C(N)=O)sn1 [Example D-158, 5-[(3R)-3-[4-(2-hydroxypropan-2-yl)benzamido]piperidin-1-yl]-3-[(3-methyl-1,2-thiazol-5-yl)amino]pyrazine-2-carboxamide]
IC50 [1]: 10 to 100 nM
IC50 [2]: 1000 to 10000 nM

Cc1cc(Nc2nc(N3CCC[C@@H](NC(=O)c4ccc(C(C)(C)O)cc4)[C@H]3C)cnc2C(N)=O)sn1 [Example D-159, 5-[(2R,3R)-3-[4-(2-hydroxypropan-2-yl)benzamido]-2-methylpiperidin-1-yl]-3-[(3-methyl-1,2-thiazol-5-yl)amino]pyrazine-2-carboxamide]
IC50 [1]: ≤ 10 nM
IC50 [2]: 100 to 1000 nM

C[C@@H]1[C@H](NC(=O)c2ccc(C(C)(C)O)c(F)c2)CCCN1c1cnc(C(N)=O)c(Nc2cnn(C)c2)n1 [Example D-160, 5-[(2R,3R)-3-[3-fluoro-4-(2-hydroxypropan-2-yl)benzamido]-2-methylpiperidin-1-yl]-3-[(1-methyl-1H-pyrazol-4-yl)amino]pyrazine-2-carboxamide]
IC50 [1]: ≤ 10 nM
IC50 [2]: 100 to 1000 nM

COC(C)(C)c1ccc(C(=O)N[C@@H]2CCCN(c3cnc(C(N)=O)c(Nc4cnn(C)c4)n3)[C@@H]2C)cc1 [Example D-161, 5-[(2R,3R)-3-[4-(2-methoxypropan-2-yl)benzamido]-2-methylpiperidin-1-yl]-3-[(1-methyl-1H-pyrazol-4-yl)amino]pyrazine-2-carboxamide]
IC50 [1]: ≤ 10 nM
IC50 [2]: 1000 to 10000 nM
